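Test compounds were applied to cells in 96-well plates for 48 hours at 5 doses. TGI: total growth inhibition.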
How the values were obtained:
Test in all cases: NCI-60 cell line screen, 48 h
[1] = tested on: A498 renal
[2] = tested on: A549 NSCLC
[3] = tested on: ACHN renal
[4] = tested on: CAKI-1 renal
[5] = tested on: CCRF-CEM leukemia
[6] = tested on: COLO 205 colon
[7] = tested on: DLD-1 colon
[8] = tested on: DMS 114 small cell lung
[9] = tested on: DMS 273 small cell lung
[10] = tested on: EKVX NSCLC
[11] = tested on: HCC-2998 colon
[12] = tested on: HCT-116 colon
[13] = tested on: HCT-15 colon
[14] = tested on: HL-60(TB) leukemia
[15] = tested on: HOP-18 NSCLC
[16] = tested on: HOP-92 NSCLC
[17] = tested on: HT29 colon
[18] = tested on: IGROV1 ovarian
[19] = tested on: K-562 leukemia
[20] = tested on: KM12 colon
[21] = tested on: KM20L2 colon
[22] = tested on: LOX IMVI melanoma
[23] = tested on: LXFL 529 NSCLC
[24] = tested on: M14 melanoma
[25] = tested on: MALME-3M melanoma
[26] = tested on: MOLT-4 leukemia
[27] = tested on: NCI-H226 lung
[28] = tested on: NCI-H23 lung
[29] = tested on: NCI-H460 lung
[30] = tested on: OVCAR-4 ovarian
[31] = tested on: OVCAR-5 ovarian
[32] = tested on: OVCAR-8 ovarian
[33] = tested on: RPMI-8226 leukemia
[34] = tested on: RXF 393 renal
[35] = tested on: RXF-631 renal
[36] = tested on: SF-268 CNS
[37] = tested on: SF-295 CNS
[38] = tested on: SF-539 CNS
[39] = tested on: SK-MEL-2 melanoma
[40] = tested on: SK-MEL-28 melanoma
[41] = tested on: SK-MEL-5 melanoma
[42] = tested on: SN12C renal
[43] = tested on: SNB-19 CNS
[44] = tested on: SNB-75 CNS
[45] = tested on: SNB-78 CNS
[46] = tested on: SR leukemia
[47] = tested on: SW-620 colon
[48] = tested on: TK-10 renal
[49] = tested on: U251 CNS
[50] = tested on: UACC-257 melanoma
[51] = tested on: UO-31 renal
[52] = tested on: XF 498 CNS
[53] = tested on: 786-0 renal
[54] = tested on: HOP-62 NSCLC
[55] = tested on: NCI-H522 lung
[56] = tested on: SK-OV-3 ovarian
[57] = tested on: M19-MEL melanoma
[58] = tested on: OVCAR-3 ovarian
[59] = tested on: UACC-62 melanoma

`CSc1cc(-c2cc3ccccc3o2)oc(=O)c1C#N` was tested, and the TGI [1] was over 100 µM, the TGI [2] was over 100 µM and the TGI [3] was over 100 µM. For the same compound, the TGI [4] was over 100 µM, the TGI [5] was over 100 µM and the TGI [6] was over 100 µM. For the same compound, the TGI [7] was over 100 µM, the TGI [8] was over 100 µM and the TGI [9] was over 100 µM. The TGI [10] was over 100 µM, the TGI [11] was over 100 µM and the TGI [12] was over 100 µM. For the same compound, the TGI [13] was over 100 µM, the TGI [14] was over 100 µM and the TGI [15] was over 100 µM. For the same compound, the TGI [16] was 2.33 µM, the TGI [17] was over 100 µM and the TGI [18] was over 100 µM. The TGI [19] was over 100 µM, the TGI [20] was over 100 µM and the TGI [21] was over 100 µM. It also gave a TGI [22] of over 100 µM, a TGI [23] of over 100 µM and a TGI [24] of over 100 µM. For the same compound, the TGI [25] was over 100 µM, the TGI [26] was over 100 µM and the TGI [27] was 4.31 µM. It also gave a TGI [28] of over 100 µM, a TGI [29] of over 100 µM and a TGI [30] of over 100 µM. The TGI [31] was over 100 µM, the TGI [32] was over 100 µM and the TGI [33] was over 100 µM. For the same compound, the TGI [34] was over 100 µM, the TGI [35] was over 100 µM and the TGI [36] was over 100 µM. It also gave a TGI [37] of over 100 µM, a TGI [38] of over 100 µM and a TGI [39] of over 100 µM. For the same compound, the TGI [40] was over 100 µM, the TGI [41] was over 100 µM and the TGI [42] was over 100 µM. The TGI [43] was over 100 µM, the TGI [44] was over 100 µM and the TGI [45] was over 100 µM. For the same compound, the TGI [46] was 50 µM, the TGI [47] was over 100 µM and the TGI [48] was 73.4 µM. It also gave a TGI [49] of over 100 µM, a TGI [50] of over 100 µM and a TGI [51] of over 100 µM. It also gave a TGI [52] of over 100 µM.

`O=[N+]([O-])c1nccn1COCCO` showed a TGI [53] of over 100 µM, a TGI [1] of over 100 µM and a TGI [2] of over 100 µM. For the same compound, the TGI [3] was over 100 µM, the TGI [4] was over 100 µM and the TGI [5] was over 100 µM. For the same compound, the TGI [6] was over 100 µM, the TGI [7] was over 100 µM and the TGI [8] was over 100 µM. For the same compound, the TGI [9] was over 100 µM, the TGI [11] was over 100 µM and the TGI [12] was over 100 µM. The TGI [13] was over 100 µM, the TGI [14] was over 100 µM and the TGI [15] was 97.8 µM. The TGI [54] was over 100 µM, the TGI [16] was over 100 µM and the TGI [17] was over 100 µM. For the same compound, the TGI [20] was over 100 µM, the TGI [21] was over 100 µM and the TGI [22] was over 100 µM. For the same compound, the TGI [23] was over 100 µM, the TGI [24] was over 100 µM and the TGI [25] was over 100 µM. The TGI [26] was over 100 µM, the TGI [27] was over 100 µM and the TGI [28] was over 100 µM. For the same compound, the TGI [29] was over 100 µM, the TGI [55] was over 100 µM and the TGI [30] was over 100 µM. The TGI [31] was over 100 µM, the TGI [33] was over 100 µM and the TGI [34] was over 100 µM. For the same compound, the TGI [35] was over 100 µM, the TGI [36] was over 100 µM and the TGI [37] was over 100 µM. It also gave a TGI [39] of over 100 µM, a TGI [40] of over 100 µM and a TGI [41] of over 100 µM. For the same compound, the TGI [56] was over 100 µM, the TGI [42] was over 100 µM and the TGI [43] was over 100 µM. It also gave a TGI [44] of over 100 µM, a TGI [45] of over 100 µM and a TGI [46] of over 100 µM. It also gave a TGI [47] of over 100 µM, a TGI [48] of over 100 µM and a TGI [49] of over 100 µM. For the same compound, the TGI [50] was over 100 µM and the TGI [52] was over 100 µM.

With `CC1=C(C(=O)CC(=O)C(=O)Nc2ccc(Cl)cc2C)Sc2ccccc2N1` the TGI [53] was over 100 µM, the TGI [1] was over 100 µM and the TGI [2] was over 100 µM. It also gave a TGI [3] of over 100 µM, a TGI [4] of over 100 µM and a TGI [5] of over 100 µM. It also gave a TGI [6] of over 100 µM, a TGI [7] of over 100 µM and a TGI [8] of over 100 µM. The TGI [9] was over 100 µM, the TGI [10] was over 100 µM and the TGI [11] was over 100 µM. For the same compound, the TGI [12] was over 100 µM, the TGI [13] was over 100 µM and the TGI [14] was over 100 µM. The TGI [15] was over 100 µM, the TGI [54] was over 100 µM and the TGI [16] was 74.7 µM. For the same compound, the TGI [17] was over 100 µM, the TGI [18] was over 100 µM and the TGI [19] was over 100 µM. The TGI [20] was over 100 µM, the TGI [21] was over 100 µM and the TGI [22] was over 100 µM. The TGI [23] was over 100 µM, the TGI [24] was over 100 µM and the TGI [57] was over 100 µM. The TGI [25] was over 100 µM, the TGI [26] was over 77.1 µM and the TGI [28] was over 100 µM. It also gave a TGI [29] of over 100 µM, a TGI [55] of over 100 µM and a TGI [58] of over 100 µM. The TGI [30] was over 100 µM, the TGI [31] was over 100 µM and the TGI [32] was over 100 µM. For the same compound, the TGI [33] was over 100 µM, the TGI [34] was over 100 µM and the TGI [35] was over 100 µM. For the same compound, the TGI [36] was over 100 µM, the TGI [37] was over 100 µM and the TGI [38] was over 100 µM. It also gave a TGI [39] of over 100 µM, a TGI [40] of over 100 µM and a TGI [41] of over 100 µM. For the same compound, the TGI [56] was over 100 µM, the TGI [42] was over 100 µM and the TGI [43] was over 100 µM. It also gave a TGI [44] of over 100 µM, a TGI [45] of over 100 µM and a TGI [47] of over 100 µM. The TGI [48] was over 100 µM, the TGI [49] was over 100 µM and the TGI [50] was over 100 µM. It also gave a TGI [59] of over 100 µM, a TGI [51] of over 100 µM and a TGI [52] of over 100 µM.

From PubChem BioAssay (NCI)
